In one test the test system is HCT116 WT cells. Nature of the test: HCT116 WT cell line proliferation (CellTiter-Glo cell viability, 6 days). It counts as cell-based. The settings on record: HCT116 WT (parent) cells, 6 days of treatment, CellTiter-Glo cell viability, read-out: HCT-116 WT IC50. Here is the method:
(§1) To assess selective anti-proliferative activity of compounds of the invention in cells that have loss expression of MTAP, an HCT-116 isogenic cell line pair was utilized where one cell line was engineered to genetically knockout both MTAP alleles. Cell viability was then assessed in both the parent HCT-116 cell line and the MTAP null cell line after 6 days of treatment with compounds of the present invention. Selective anti-proliferative activity in the MTAP null cell line indicates MTA-cooperative inhibition of PRMT5 and ability to inhibit growth of cancer cells that have loss of MTAP.
(§2) HCT116 MTAP null and WT cells were seeded in 96-well tissue culture plates in RPMI 1640 media+10% fetal bovine serum. Plates were incubated overnight at 37° C. and 5% CO2. Cells were then treated with an 8- or 9-point serial dilution of compound, using a top concentration of 1, or 10 μM, 1:3 serial dilution steps and, a DMSO-only control. Cells were incubated in the presence of drug for 6 days. Effects on cell viability were measured with the CellTiter-Glo® Luminescent Cell Viability Assay (Promega) per manufacturer's recommendation. Assay plates were read on an EnVision™ Multilabel Reader using the Ultra-Sensitive luminescence module. IC50 values were calculated with GraphPad Prism v 5.01 using symmetrical sigmoidal dose-response least squares fit with Hill slope fixed to −1 and top constrain to 100% or GeneData Screener using a 4-parameter logistic model to fit dose response curves.
(§3) Alternatively, compounds could be assayed with a 384 well plate format:
(§4) Compounds were pre-spotted into 384 well plates with a 22-point serial dilution of compound, using a top concentration of 10 or 50 μM, 1:2 serial dilution steps and, a DMSO-only control. HCT116 MTAP null and WT cells were then seeded as above and after 6 days effects on cell viability were measured with the CellTiter-Glo® Luminescent Cell Viability Assay (Promega). Assay plates were read as above and IC50 values were calculated with GeneData Screener using a 4-parameter logistic model to fit dose response curves. The reported IC50 represents the value where the curve transits 50% of control.

The subject of another test is HCT116 MTAP null cells. Put plainly: HCT116 MTAP null cell line proliferation (CellTiter-Glo cell viability, 6 days). It counts as cell-based. Particulars: HCT116 MTAP null cells, 6 days of treatment, CellTiter-Glo cell viability, read-out: HCT-116 MTAP null IC50. As to the method: as §1, §2, §3, §4

Experimental findings from US11845760B2, “PRMT5 inhibitors” (AMGEN INC., priority 2020, dated 2023) are described below.

Like-named read-outs stand apart in the source and are kept apart here.

With `C[C@H]1COC[C@@H](c2ccc(C(F)(F)F)cn2)N1C(=O)c1cc2c3c(c(N)nc2cc1F)COC3` (mixture of isomers) [Example 304, (4-amino-7-fluoro-1,3-dihydrofuro[3,4-c]quinolin-8-yl)((3R,5S)-3-methyl-5-(5-(trifluoromethyl)-2-pyridinyl)-4-morpholinyl)methanone and (4-amino-7-fluoro-1,3-dihydrofuro[3,4-c]quinolin-8-yl)((3S,5R)-3-methyl-5-(5-(trifluoromethyl)-2-pyridinyl)-4-morpholinyl)methanone], the 50% inhibitory concentration (IC50) turned out to be 572 nM in the test with HCT116 WT cells (Homo sapiens, HCT-116, 144 h) and 710 nM with HCT116 MTAP null cells (HCT116-MTAP null, 144 h).

`CC1OCc2c1c(N)nc1cnc(C(=O)N3C(C)COCC3c3ccc(OC(F)F)nn3)cc21` (mixture of isomers) [Example 316, ((3R)-4-amino-3-methyl-1,3-dihydrofuro[3,4-c][1,7]naphthyridin-8-yl)((3R,5S)-3-(6-(difluoromethoxy)-3-pyridazinyl)-5-methyl-4-morpholinyl)methanone and ((3R)-4-amino-3-methyl-1,3-dihydrofuro[3,4-c][1,7]naphthyridin-8-yl)((3S,5R)-3-(6-(difluoromethoxy)-3-pyridazinyl)-5-methyl-4-morpholinyl)methanone]: the IC50 was 1130 nM in the test with HCT116 WT cells and 35 nM with HCT116 MTAP null cells. Turning to `CC1OCc2c1c(N)nc1ccc(C(=O)N3C(C)COCC3c3ccc(OC(F)F)nn3)cc21` (mixture of isomers) [Example 317, ((3R)-4-amino-3-methyl-1,3-dihydrofuro[3,4-c]quinolin-8-yl)((3R,5S)-3-(6-(difluoromethoxy)-3-pyridazinyl)-5-methyl-4-morpholinyl)methanone and ((3R)-4-amino-3-methyl-1,3-dihydrofuro[3,4-c]quinolin-8-yl)((3S,5R)-3-(6-(difluoromethoxy)-3-pyridazinyl)-5-methyl-4-morpholinyl)methanone], the figures for the IC50 in the test on HCT116 WT cells and with HCT116 MTAP null cells were 2370 nM and 53 nM, respectively. As to `CC(C)Oc1ccc([C@H]2COCCN2C(=O)c2cc3c4c(c(N)nc3cn2)COC4)cn1` (mixture of isomers) [Example 323, (4-amino-1,3-dihydrofuro[3,4-c][1,7]naphthyridin-8-yl)((3R)-3-(6-(2-propanyloxy)-3-pyridinyl)-4-morpholinyl)methanone and (4-amino-1,3-dihydrofuro[3,4-c][1,7]naphthyridin-8-yl)((3S)-3-(6-(2-propanyloxy)-3-pyridinyl)-4-morpholinyl)methanone], the IC50 in the test on HCT116 MTAP null cells (HCT116-MTAP null, 144 h) came out at 397 nM. For `CCOc1ccc(C2COCCN2C(=O)c2cc3c4c(c(N)nc3cn2)[C@@H](C)OC4)nn1` (mixture of isomers) [Example 325, ((3R)-4-amino-3-methyl-1,3-dihydrofuro[3,4-c][1,7]naphthyridin-8-yl)((3R)-3-(6-ethoxy-3-pyridazinyl)-4-morpholinyl)methanone and ((3R)-4-amino-3-methyl-1,3-dihydrofuro[3,4-c][1,7]naphthyridin-8-yl)((3S)-3-(6-ethoxy-3-pyridazinyl)-4-morpholinyl)methanone], the IC50 is above 10000 nM with HCT116 WT cells (Homo sapiens, HCT-116, 144 h) and 771 nM in the test on HCT116 MTAP null cells (HCT116-MTAP null, 144 h). As for `CC1OCc2c1c(N)nc1cnc(C(=O)N3C(C)COCC3c3ccc(OC(F)(F)F)cc3F)cc21` (mixture of isomers) [Example 330, ((3S)-4-amino-3-methyl-1,3-dihydrofuro[3,4-c][1,7]naphthyridin-8-yl)((3R,5S)-3-(2-fluoro-4-(trifluoromethoxy)phenyl)-5-methyl-4-morpholinyl)methanone and ((3S)-4-amino-3-methyl-1,3-dihydrofuro[3,4-c][1,7]naphthyridin-8-yl)((3S,5R)-3-(2-fluoro-4-(trifluoromethoxy)phenyl)-5-methyl-4-morpholinyl)methanone], the results for the IC50 in the test on HCT116 WT cells and with HCT116 MTAP null cells were 20900 nM and 403 nM, respectively. On the same counts, the results for `CC1OCc2c1c(N)nc1ccc(C(=O)N3C(C)COCC3c3ccc(C(F)(F)F)cc3F)cc21` (mixture of isomers) [Example 331, ((3R)-4-amino-3-methyl-1,3-dihydrofuro[3,4-c]quinolin-8-yl)((3R,5S)-3-(2-fluoro-4-(trifluoromethyl)phenyl)-5-methyl-4-morpholinyl)methanone and ((3R)-4-amino-3-methyl-1,3-dihydrofuro[3,4-c]quinolin-8-yl)((3S,5R)-3-(2-fluoro-4-(trifluoromethyl)phenyl)-5-methyl-4-morpholinyl)methanone] are 897 nM and 35 nM. In the same order, the values of `CC1OCc2c1c(N)nc1cnc(C(=O)N3C(C)COCC3c3ccc(C(F)(F)F)cc3F)cc21` (mixture of isomers) [Example 332, ((3S)-4-amino-3-methyl-1,3-dihydrofuro[3,4-c][1,7]naphthyridin-8-yl)((3R,5S)-3-(2-fluoro-4-(trifluoromethyl)phenyl)-5-methyl-4-morpholinyl)methanone and ((3S)-4-amino-3-methyl-1,3-dihydrofuro[3,4-c][1,7]naphthyridin-8-yl)((3S,5R)-3-(2-fluoro-4-(trifluoromethyl)phenyl)-5-methyl-4-morpholinyl)methanone] are 23300 nM and 536 nM. On the same counts, the results for `CC1OCc2c1c(N)nc1cnc(C(=O)N3CCOCC3c3ccc(C(F)(F)C(F)(F)F)cc3)cc21` (mixture of isomers) [Example 337, ((3R)-4-amino-3-methyl-1,3-dihydrofuro[3,4-c][1,7]naphthyridin-8-yl)((3S)-3-(4-(pentafluoroethyl)phenyl)-4-morpholinyl)methanone and ((3S)-4-amino-3-methyl-1,3-dihydrofuro[3,4-c][1,7]naphthyridin-8-yl)((3S)-3-(4-(pentafluoroethyl)phenyl)-4-morpholinyl)methanone] are 1460 nM and 30 nM. Take `C[C@@H]1COC[C@H](c2cc(F)cc(F)c2)N1C(=O)c1cc2c3c(c(N)nc2cn1)[C@@H](C)OC3` (racemic) [Example 324, ((3R)-4-amino-3-methyl-1,3-dihydrofuro[3,4-c][1,7]naphthyridin-8-yl)((3R,5S)-3-(3,5-difluorophenyl)-5-methyl-4-morpholinyl)methanone and ((3R)-4-amino-3-methyl-1,3-dihydrofuro[3,4-c][1,7]naphthyridin-8-yl)((3S,5R)-3-(3,5-difluorophenyl)-5-methyl-4-morpholinyl)methanone]: the IC50 with HCT116 MTAP null cells (HCT116-MTAP null, 144 h) came to 186 nM. Still for that read-out and setting: in the case of `Nc1nc2ccc(C(=O)N3CCOCC3c3ccccc3Cl)cc2c2c1COC2` (racemic) [Example 360, (4-amino-1,3-dihydrofuro[3,4-c]quinolin-8-yl)-[rac-(3S)-3-(2-chlorophenyl)morpholin-4-yl]methanone] it was 1050 nM; in that of `Cc1ccc(C2COCCN2C(=O)c2ccc3nc(N)c4c(c3c2)COC4)cc1` (racemic) [Example 361, (4-amino-1,3-dihydrofuro[3,4-c]quinolin-8-yl)-[rac-(3S)-3-(p-tolyl)morpholin-4-yl]methanone], 839 nM. Take `Nc1nc2ccc(C(=O)N3CCOCC3c3cccc(Br)c3)cc2c2c1COC2` (racemic) [Example 366, (4-amino-1,3-dihydrofuro[3,4-c]quinolin-8-yl)-[rac-(3S)-3-(3-bromophenyl)morpholin-4-yl]methanone]: the half-maximal inhibitory concentration (IC50) with HCT116 MTAP null cells (HCT116-MTAP null, 144 h) is 363 nM. The same measure, in the same setting: to `Nc1nc2ccc(C(=O)N3CCOCC3c3ccc(Br)cc3)cc2c2c1COC2` (racemic) [Example 367, (4-amino-1,3-dihydrofuro[3,4-c]quinolin-8-yl)-[rac-(3S)-3-(4-bromophenyl)morpholin-4-yl]methanone] belongs 368 nM; to `Nc1nc2cnc(C(=O)N3CCOCC3c3ccc(C4CC4)nc3)cc2c2c1COC2` (racemic) [Example 495, (4-amino-1,3-dihydrofuro[3,4-c][1,7]naphthyridin-8-yl)-[rac-(3S)-3-(6-cyclopropyl-3-pyridyl)morpholin-4-yl]methanone], 502 nM; to `CC1(C)CN(C(=O)c2ccc3nc(N)c4c(c3c2)COC4)[C@@H](c2ccc(C(F)(F)F)cn2)CO1` (single isomer, unassigned) [Example 594], 99 nM.

What is called IC50 is the concentration needed to halve the response being measured.
